How the values were obtained:
[1] = biological target: T1, yeast AAC carrier 3 (yAAC3), mitochondrial ADP/ATP carrier (Saccharomyces cerevisiae, UniProt P18238); test: NMR chemical shift titration; type: binding
[2] = biological target: T1, yeast AAC carrier 3 (yAAC3), mitochondrial ADP/ATP carrier; test: ITC; type: binding

T1 sequence (P18238 whole entry): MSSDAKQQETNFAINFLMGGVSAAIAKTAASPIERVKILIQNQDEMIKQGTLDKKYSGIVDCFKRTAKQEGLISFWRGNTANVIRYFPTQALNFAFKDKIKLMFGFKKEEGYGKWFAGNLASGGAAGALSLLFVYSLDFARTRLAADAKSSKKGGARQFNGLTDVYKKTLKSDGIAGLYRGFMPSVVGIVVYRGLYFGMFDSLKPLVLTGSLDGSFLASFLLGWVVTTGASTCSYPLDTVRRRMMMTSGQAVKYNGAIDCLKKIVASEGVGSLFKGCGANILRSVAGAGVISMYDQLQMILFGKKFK

| Kd [1] [µM] | Compound | Kd [2] [µM] |
| --- | --- | --- |
| ~500 | Nc1ncnc2c1ncn2[C@@H]1O[C@H](COP(=O)(O)OP(=O)(O)O)[C@@H](O)[C@H]1O [ADP] |  |
|  | C=C1[C@@H]2CC[C@H]3[C@]4(C)C[C@H](O[C@@H]5O[C@H](CO)[C@@H](OS(=O)(=O)O)[C@H](OS(=O)(=O)O)[C@H]5OC(=O)CC(C)C)CC(C(=O)O)(C(=O)O)[C@H]4CC[C@]3(C2)[C@H]1O [CATR, carboxyatractyloside] | 14.9 ± 9.6 |
